Read-outs that look alike come from different tables or passages of the source.
Tests used:
[1] = molecular target: T1, Cathepsin B from human placenta (Homo sapiens, UniProt P07858); experiment: Inhibition of cathepsin B, Z-Arg-Arg-AMC fluorescence progress curves; type: biochemical; conditions: for Ki: corrected for substrate; for k/KI (kirr/KI): values without asterisk; for k/KI (kirr/KI) / kobs /[I]* (approximate second-order inactivation constant): 25° C., pH 6.2; for kobs /[I]* (approximate second-order inactivation constant): values marked *
T1 construct: Cathepsin B from human placenta, obtained from Sigma; purchased Sigma; host or cells: human placenta (tissue)
In short: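 Human placental enzyme (~10 nM) in 50 mM phosphate pH 6.2 with 2.5 mM DTT and 2.5 mM EDTA, 50 μM Z-Arg-Arg-AMC, inhibitors 30-0.001 μM, 25° C. AMC fluorescence (ex 380/em 460 nm) progress curves fitted for kobs; kobs/[I] reported, with kirr, KI and kirr/KI substrate-corrected for selected compounds.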

[2] = molecular target: T2, Cathepsin L from rat liver (Rattus norvegicus, UniProt P07154); experiment: Inhibition of cathepsin L, Z-Phe-Arg-AMC fluorescence progress curves; type: biochemical; conditions: for kobs /[I]* (approximate second-order inactivation constant): values marked *; for kobs /[I]* (approximate second-order inactivation constant) / k/KI (kirr/KI): 25° C., pH 6.2; for Ki: corrected for substrate; for k/KI (kirr/KI): values without asterisk
T2 construct: Cathepsin L from rat liver; from tissue; host or cells: rat liver
T2 sequence (P07154 114-288 limits assumed): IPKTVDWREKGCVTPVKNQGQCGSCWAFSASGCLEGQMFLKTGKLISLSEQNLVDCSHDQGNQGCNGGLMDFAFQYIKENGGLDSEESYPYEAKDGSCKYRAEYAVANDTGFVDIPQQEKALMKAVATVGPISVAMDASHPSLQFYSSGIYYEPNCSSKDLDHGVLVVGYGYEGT
T2 sequence (P07154 291-334 limits assumed): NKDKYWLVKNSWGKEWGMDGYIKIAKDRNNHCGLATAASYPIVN
In short: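 Progress curves of AMC release (380/460 nm) over at least 3 inactivation half-times were fitted to kobs, reported as kobs/[I] or, via 1/[I] vs 1/kobs, kirr, KI (substrate-corrected) and kirr/KI.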

Cloned cathepsin S = molecular target: T3, Cloned cathepsin S (Homo sapiens, UniProt P25774); experiment: Inhibition of cathepsin S, Z-Val-Val-Arg-AMC fluorescence progress curves; type: biochemical; conditions: for Ki: corrected for substrate; for kobs /[I]* (approximate second-order inactivation constant): values marked *
T3 construct: made in house
T3 sequence (P25774 115-331): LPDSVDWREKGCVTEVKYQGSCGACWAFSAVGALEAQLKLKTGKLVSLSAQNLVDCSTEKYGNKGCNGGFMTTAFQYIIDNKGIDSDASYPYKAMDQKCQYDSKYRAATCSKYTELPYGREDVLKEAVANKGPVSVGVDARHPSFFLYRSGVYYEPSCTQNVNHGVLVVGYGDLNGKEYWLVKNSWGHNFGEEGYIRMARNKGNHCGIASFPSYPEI
In short: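 Progress curves at 25 °C in 100 mM phosphate pH 6.5, 2.5 mM DTT, 2.5 mM EDTA, 0.01% Triton, enzyme <1 nM, 10 μM substrate, inhibitors 30-0.001 μM; AMC fluorescence ex 380/em 460 nm. kobs from nonlinear fits gave kobs/[I]; selected compounds yielded kirr, KI (substrate-corrected), kirr/KI.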

cruzain, from T. cruzi = cruzain, from T. cruzi (Trypanosoma cruzi, UniProt P25779); experiment: Inhibition of cruzain, as for cathepsin L; type: biochemical; conditions: values marked *
Sequence of cruzain, from T. cruzi (P25779 123-337 limits assumed): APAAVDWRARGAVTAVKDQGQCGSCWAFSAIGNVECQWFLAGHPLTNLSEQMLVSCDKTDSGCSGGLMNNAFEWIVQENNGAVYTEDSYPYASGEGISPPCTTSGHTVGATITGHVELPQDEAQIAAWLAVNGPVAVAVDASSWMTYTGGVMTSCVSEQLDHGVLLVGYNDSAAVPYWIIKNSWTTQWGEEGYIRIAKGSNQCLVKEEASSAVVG
In short: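 Run as for cathepsin L with 1 nM cruzain in 50 mM phosphate pH […], 2.5 mM DTT, 2.5 mM EDTA, 5 μM Z-Phe-Arg-AMC, at 25 °C, inhibitors 30-0.001 μM; fluorescence (ex 380/em 460 nm) followed continuously. kobs fitted from progress curves and kobs/[I] reported; selected compounds gave kirr, KI, kirr/KI, with KI corrected by (1+[S]/Km).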

[3] = Stability of selected inhibitors toward glutathione (Ellmans reagent); type: physicochemical; conditions: for reaction with GSH: after 24 hours, pH=6.2, 15% DMF, 20° C.; for reaction with GSH / second order rate constant for the loss of GSH: inhibitor 5 mM, GSH 0.3 mM; for second order rate constant for the loss of GSH: pH=6.2, 20° C.
Protocol: The inhibitors (5 mM) were incubated with glutathione (GSH) (0.3 mM) in phosphate buffer (50 mM) at pH=6.2 containing 15% DMF at 20° C. Periodically, 50 μL samples were added to 1 mL of buffer and treated with 10 μL of 30 mM Ellmans reagent and the absorbance measured at 412 nm.

[4] = test system: human malarial parasite Plasmodium falciparum; experiment: In vitro protease activity of malarial parasite, substrate Z-Phe-Arg-AMC; type: biochemical; conditions: read-out: P. falciparum IC50 (human)
Description: (§1) The following table summarizes the comparative IC50 values for selected cysteine protease inhibitors against the human malarial parasite Plasmodium falciparum and the mouse malarial parasite Plasmodium vinckei. The substrate used to measure in vitro protease activity was Z-Phe-Arg-AMC.

[5] = test system: mouse malarial parasite Plasmodium vinckei; experiment: as above; type: biochemical; conditions: read-out: P. vinckei IC50 (murine)
Description: as §1

T. cruzi = T. cruzi infected irradiated J774 cells; type: cell-based; parameters: dose or concentration left out as unconfirmed; conditions: thereafter without inhibitor; compounds listed in decreasing order of effectiveness
Protocol: Irradiated J774 cells were infected with T. cruzi and simultaneously treated with […] of peptidyl vinyl derivatives for 5 days; thereafter without inhibitor. The following compounds were effective in decreasing order: Mu-Phe-ArgVSPh, Boc-Tyr(I2)-HphVSPh, Mu-Phe-VaIVSPh, Boc-Tic-HphVSPh, Mu-Phe-Ser(OBzl)VSPh, Mu-Leu-HphVSPh, Mu-Tyr(I2)-HphVSPh, Mu-Phe-LysVSPh, Mu-Tic-HphVSPh.

U251MGn = experiment: Matrigel barrier migration assay, U251MGn; type: cell-based, human; parameters: dose or concentration left out as unconfirmed
Protocol: (§2) Two permanent human glioma cell lines (U87MG and U251MGn) and a well characterized low passage primary culture derived from a CB-positive glioblastoma (HF66) were used to assess the migratory behavior in the Matrigel barrier migration assay in the presence of graded concentrations of four compounds.
(§3) Using the Matrigel assay, Mu-Leu-HphVSPh, Mu-Tyr-HphVSPh, Mu-Phe-HphVSPh, and Mu-Tyr(I2)-HphVSPh (all at 10 mM) inhibited U251MGn by 67, 56, 29, & 20% respectively, while the U87MG cells were inhibited 53, 75, 63, & 56% respectively. The primary culture HF66 cells were inhibited only 10% by these compounds at the same concentration.

U87MG = experiment: Matrigel barrier migration assay, U87MG; type: cell-based, human; parameters: dose or concentration left out as unconfirmed
Protocol: as §2, §3

calpain = experiment: Inhibition (inactivation) of calpain, Suc-Leu-Tyr-AMC; type: biochemical; conditions: values marked * (or %); pH 7.5, 5 mM CaCl2, 25° C.
Protocol: The inhibitors were tested against calpain at 1 or 2% as for the other enzymes. The reaction conditions were 50 mM Tris, pH 7.5, 5 mM CaCl2, 2.5 mM DTT, assayed at 25° C. The substrate was 100 μM Suc-Leu-Tyr-AMC.

P. carinii = experiment: Growth of P. carinii in vitro; type: cell-based; conditions: 10 mM each
Protocol: Mu-Leu-HphVSPh and Mu-Phe-LysVSPh.HBr were evaluated for their effects on the growth of P. carinii in vitro, according to the procedure of M. S. Bartlett et al. [Antimicrotubule Benzimidazoles Inhibit In Vitro Growth of P. carinii, M. S. Bartlett, T. D. Edlind, M. M. Durkin, M. M. Shaw, S. F. Queener, and J. W. Smith, (1992) Antimicrobial Agents and Chemotherapy, 36, 779-782; Antimicrobial susceptibility of P. carinii in culture, M. S. Bartlett, R. Eichholtz, and J. W. Smith (1985) Diagn. Microbiol. Infect. Dis.; 3, 381-387. Mu-Leu-HphVSPh and Mu-Phe-LysVSPh.HBr (10 mM each) inhibited the growth of P. carinii 64% and 50% respectively.

chymotrypsin = experiment: Selectivity versus serine proteases: chymotrypsin; type: biochemical; conditions: 100 μM

Row | Compound | kirr [1] [s⁻¹] | Ki [1] [nM] | k/KI (kirr/KI) [1] | kobs /[I]* (approximate second-order inactivation constant) [2] | kobs /[I]* (approximate second-order inactivation constant) (cruzain, from T. cruzi) | kirr [2] [s⁻¹] | Ki [2] [nM] | k/KI (kirr/KI) [2] | kobs /[I]* (approximate second-order inactivation constant) (Cloned cathepsin S; 25° C., pH 6.5) | also measured
1 | CS(=O)(=O)/C=C/[C@H](CCc1ccccc1)NC(=O)[C@H](Cc1ccccc1)NC(=O)N1CCOCC1 [Mu-Phe-HphVSMe, (S)-(E)-5-(4-morpholinecarbonylphenylalanyl)amino-7-phenyl-2-thia-3-heptene 2,2-dioxide] | 0.13 | 26000 | 5100 M⁻¹ s⁻¹ | 8700 M⁻¹ s⁻¹ | 22,000 M^-1 sec^-1 |  |  |  |  | kirr (Cloned cathepsin S): 0.10 s⁻¹; Ki (Cloned cathepsin S): 88 nM; reaction with GSH [3]: no measurable reaction; IC50 ([4]; cells printed in μM): 1 µM; IC50 ([5]; cells printed in μM): 1 µM
2 | Br.CCOC(=O)/C=C/[C@H](CCCNC(=N)N)NC(=O)[C@H](Cc1ccccc1)NC(=O)N1CCOCC1 [Mu-Phe-ArgVEOEt.HBr, ethyl (S)-(E)-7-guanidino-4-(4-morpholinecarbonylphenylalanyl)amino-2-heptenoatehydrobromide] | 0.16 | 19000 | 8200 M⁻¹ s⁻¹ |  |  | 0.18 | 3100 | 56,900 M^-1 sec^-1 |  | second order rate constant for the loss of GSH [3]: 0.0053 M⁻¹ s⁻¹; times more reactive with GSH ([3]; relative to Mu-Phe-LysVSPh): 10 times; IC50 ([4]; cells printed in nM): 0.3 µM; IC50 ([5]; cells printed in nM): 0.2 µM
3 | O=C(N[C@H](/C=C/S(=O)(=O)c1ccccc1)CCc1ccccc1)C(Cc1cc(I)c(O)c(I)c1)NC(=O)N1CCOCC1 (stereo partly drawn) [Mu-Tyr(I2)-HphVSPh, (S)-(E)-3-[4-morpholinecarbonyl-(3,5-diiodotyrosyl)]-amino-5-phenyl-1-phenylsulfonyl-1-pentene] | 0.18 | 4700 | 39,200 M^-1 sec^-1 | 190,000 M^-1 sec^-1 | 114,000 M^-1 sec^-1 |  |  |  | > 7,300,000 M^-1 sec^-1 | effectiveness against T. cruzi in J774 cells (T. cruzi): effective; inhibition of U251MGn migration (U251MGn): 20%; inhibition of U87MG migration (U87MG): 56%
4 | Br.NCCCC[C@@H](/C=C/S(=O)(=O)c1ccccc1)NC(=O)[C@H](Cc1ccccc1)NC(=O)N1CCOCC1 [Mu-Phe-LysVSPh.HBr, (G)-(E)-7-amino-3-(4-morpholinecarbonylphenylalanyl)amino-1-phenylsulfonyl-1-heptene hydrobromide] |  |  | 11,700 M^-1 sec^-1 | 220,000 M^-1 sec^-1 | 149,000 M^-1 sec^-1 | 0.16 | 1400 | 110,000 M^-1 sec^-1 | 10,700,000 M^-1 sec^-1 | kobs /[I]* (approximate second-order inactivation constant) [1]: 11,300 M^-1 sec^-1; kobs /[I]* (calpain): < 50 M⁻¹ s⁻¹; second order rate constant for the loss of GSH [3]: 0.00055 M⁻¹ s⁻¹; IC50 ([4]; cells printed in nM): 0.1 µM; IC50 ([5]; cells printed in nM): 0.06 µM; inhibition of the growth of P. carinii (P. carinii): 50%; effectiveness against T. cruzi in J774 cells (T. cruzi): effective
5 | CCOP(=O)(C/C=C/[C@H](CCc1ccccc1)NC(=O)[C@H](Cc1ccccc1)NC(=O)N1CCOCC1)OCC [Mu-Phe-HphVPEt, diethyl (S)-(E)-4-(4-morpholinecarbonylphenylalanyl)amino-6-phenyl-2-hexenephosphonate] |  |  |  |  |  | 0.16 | 39000 | 4100 M⁻¹ s⁻¹ |  | kirr (Cloned cathepsin S): 0.40 s⁻¹; Ki (Cloned cathepsin S): 36000 nM; k/KI (kirr/KI) (Cloned cathepsin S; values without asterisk, 25° C., pH 6.5): 11,200 M^-1 sec^-1; reaction with GSH [3]: no measurable reaction
6 | C[C@H](NC(=O)OC(C)(C)C)C(=O)N[C@H](/C=C/S(=O)(=O)c1ccccc1)Cc1ccccc1 [Boc-Ala-PheVSPh] |  |  |  |  |  |  |  |  |  | binding to chymotrypsin (chymotrypsin; 100 mM TRIS buffer at pH=7.5): did not bind; inactivation of chymotrypsin (chymotrypsin; pH=7.5, after 1 hour): nor did it inactivate
7 | (S)-(E)-3-(4-morpholinecarbonyltyrosyl)amino-5-phenyl-1-phenylsulfonyl-1-pentene [Mu-Tyr-HphVSPh] |  |  |  | 700,000 M^-1 sec^-1 | 297,000 M^-1 sec^-1 |  |  |  | 4,200,000 M^-1 sec^-1 | kobs /[I]* (approximate second-order inactivation constant) [1]: 20,000 M^-1 sec^-1; inhibition of U251MGn migration (U251MGn): 56%; inhibition of U87MG migration (U87MG): 75%
